{"source": "paper PMC7618375", "about": "“Structure and Methyl-lysine Binding Selectivity of the HUSH Complex Subunit MPP8” (Journal of molecular biology, 2024)", "molecular_target": "T1, MPP8 CD (chromodomain, residues 55–116) (Homo sapiens, UniProt Q99549)", "T1 construct": "The MPP8 CD (residues 55–116) was cloned with a tobacco etch virus (TEV) protease cleavage site; His6 (N); TEV protease cleavage site (ENLYFQG) (N); made in house; host or cells: E. coli BL21 (DE3)", "T1 sequence (Q99549 55-116)": "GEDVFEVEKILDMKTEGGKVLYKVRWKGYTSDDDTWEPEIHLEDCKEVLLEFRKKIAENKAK", "assay": "Isothermal titration calorimetry (ITC) of H3K9 and H3K9-like peptides titrated into MPP8 CD", "assay_type": "binding", "settings": "50 mM HEPES pH 7.4, 0.1 M NaCl, 0.5 mM TCEP, 25 °C, single-site model", "procedure": "H3K9 and H3K9-like peptides, unmethylated or lysine-trimethylated, were chemically synthesized (Bio Basic Inc/NBS Biologicals Ltd). Binding of MPP8 CD to H3K9 and H3K9-like peptides was analyzed in 50 mM HEPES pH 7.4, 0.1 M NaCl, 0.5 mM TCEP at 25 °C (298 K), with an AutoiTC200 calorimeter (MicroCal). The sample cell was loaded with 0.37 ml of 50 μM MPP8 CD and the titrant syringe with 750 μM peptide. 20 serial injections of […] peptide solution were performed at 3 min intervals. The stirring speed was 1,000 rpm and the reference power was maintained at 6.06 µcal s^−1. The net heat absorption or release associated with each injection was calculated by subtracting the heat associated with the injection of peptide solution to buffer. Thermodynamic parameters were extracted from a curve fit to the data to a single-site model with Origin 7.0 (MicroCal).", "key": {"[1]": {"settings": "50 μM MPP8 CD in cell, 750 μM peptide in syringe"}}, "note": "Non-standard residues stand in square brackets, D forms with d. Residues, ends and D or L forms follow the SMILES beside them. Lys(Me3) = C[N+](C)(C)CCCC[C@H](N)C(=O)O", "data": [{"smiles": "CC[C@H](C)[C@H](NC(=O)CNC(=O)[C@H](Cc1c[nH]cn1)NC(=O)[C@@H](NC(=O)[C@@H](N)CO)[C@@H](C)O)C(=O)N[C@@H](C)C(=O)N[C@H](C(=O)N[C@@H](CCCC[N+](C)(C)C)C(=O)N[C@@H](CO)C(=O)N[C@H](C(=O)N[C@@H](CC(N)=O)C(=O)N[C@@H](CCSC)C(=O)N[C@@H](C)C(=O)N[C@@H](CO)C(=O)O)[C@@H](C)O)[C@@H](C)CC", "note": "[SETDB1 1171-1184 K1178me3] (H-STHGIAI[Lys(Me3)]STNMAS-OH; N-terminus and C-terminus assumed)", "values": [{"measurement": "Kd", "setting": "[1]", "result": "> 50", "unit": "µM"}, {"measurement": "Kd", "setting": "Figure 4B", "result": "> 80", "unit": "µM"}]}, {"smiles": "CSCC[C@H](NC(=O)[C@@H](NC(=O)[C@H](CCCC[N+](C)(C)C)NC(=O)[C@H](CCCNC(=N)N)NC(=O)[C@H](C)NC(=O)[C@H](CCCCN)NC(=O)[C@H](Cc1ccccc1)NC(=O)[C@@H](NC(=O)[C@@H](N)CCCCN)C(C)C)[C@@H](C)O)C(=O)N[C@@H](CCCNC(=N)N)C(=O)N[C@H](C(=O)N[C@@H](CO)C(=O)O)C(C)C", "note": "[ATF7IP 10-21 K16me3] (H-KVFKAR[Lys(Me3)]TMRVS-OH)", "values": [{"measurement": "Kd", "setting": "[1]", "result": "0.193 ± 0.031", "unit": "µM"}]}, {"smiles": "CSCC[C@H](NC(=O)[C@@H](NC(=O)[C@H](CCCC[N+](C)(C)C)NC(=O)[C@H](CCCNC(=N)N)NC(=O)[C@H](C)NC(=O)[C@H](CCCNC(=N)N)NC(=O)[C@H](Cc1c[nH]cn1)NC(=O)[C@@H](NC(=O)[C@@H](N)CCCCN)C(C)C)[C@@H](C)O)C(=O)N1CCC[C@H]1C(=O)N[C@@H](CCCCN)C(=O)N[C@@H](CO)C(=O)N[C@H](C(=O)O)C(C)C", "note": "[GLP 199-211 K205me3] (H-KVHRAR[Lys(Me3)]TMPKSV-OH)", "values": [{"measurement": "Kd", "setting": "[1]", "result": "0.337 ± 0.064", "unit": "µM"}]}, {"smiles": "CSCC[C@H](NC(=O)[C@@H](NC(=O)[C@H](CCCC[N+](C)(C)C)NC(=O)[C@H](CCCNC(=N)N)NC(=O)[C@H](C)NC(=O)[C@H](CCCNC(=N)N)NC(=O)[C@H](Cc1c[nH]cn1)NC(=O)[C@@H](NC(=O)[C@@H](N)CCCCN)C(C)C)[C@@H](C)O)C(=O)N[C@@H](CO)C(=O)N[C@@H](CCCCN)C(=O)N1CCC[C@H]1C(=O)O", "note": "[G9a 179-190 K185me3] (H-KVHRAR[Lys(Me3)]TMSKP-OH)", "values": [{"measurement": "Kd", "setting": "[1]", "result": 1.31, "unit": "µM"}]}, {"smiles": "CC(C)C[C@H](N)C(=O)N[C@@H](C)C(=O)N[C@H](C(=O)N[C@@H](CCCCN)C(=O)N[C@@H](C)C(=O)N[C@@H](C)C(=O)N[C@@H](CCCNC(=N)N)C(=O)N[C@@H](CCCC[N+](C)(C)C)C(=O)N[C@@H](CO)C(=O)N[C@@H](C)C(=O)N1CCC[C@H]1C(=O)N[C@@H](C)C(=O)N[C@H](C(=O)NCC(=O)NCC(=O)N[C@H](C(=O)N[C@@H](CCCCN)C(=O)O)C(C)C)[C@@H](C)O)[C@@H](C)O", "note": "[H3.1 20-36 K27me3, reference compound]", "values": [{"measurement": "Kd", "setting": "[1]", "result": "> 50", "unit": "µM"}]}, {"smiles": "C[C@H](NC(=O)[C@H](CCCCN)NC(=O)CNC(=O)CNC(=O)[C@@H](NC(=O)[C@H](CO)NC(=O)[C@H](CCCC[N+](C)(C)C)NC(=O)[C@H](CCCNC(=N)N)NC(=O)[C@H](C)NC(=O)[C@@H](NC(=O)[C@H](CCC(N)=O)NC(=O)[C@@H](N)CCCCN)[C@@H](C)O)[C@@H](C)O)C(=O)O", "note": "[H3.1 4-15 K9me3, reference compound]", "values": [{"measurement": "Kd", "setting": "[1]", "result": "0.769 ± 0.065", "unit": "µM"}]}, {"smiles": "CC[C@H](C)[C@H](NC(=O)CNC(=O)[C@H](Cc1c[nH]cn1)NC(=O)[C@@H](NC(=O)[C@H](CO)NC(=O)[C@H](CCCC[N+](C)(C)C)NC(=O)[C@H](CC(C)C)NC(=O)[C@H](C)NC(=O)[C@H](Cc1ccccc1)NC(=O)CNC(=O)[C@@H](N)CCCNC(=N)N)[C@@H](C)O)C(=O)O", "note": "[SETDB1 1165-1175 K1170me3] (H-RGFAL[Lys(Me3)]STHGI-OH)", "values": [{"measurement": "Kd", "setting": "[1]", "result": 1.55, "unit": "µM"}]}]}
